Assay results taken from paper PMC11359963 (Pharmaceutics, 2024).
Non-standard residues stand in square brackets, D forms with d. Residues, ends and D or L forms follow the SMILES beside them. β3hF = N[C@H](CC(=O)O)Cc1ccccc1

Experiments:
TNF-α = experiment: LPS-induced TNF-α production in human whole blood cell cultures (WEHI 164.13 bioassay); assay type: cell-based; details: for % of Inhibition vs. DMSO Control / TNF-α: LPS 1 µg/mL; for % of Inhibition vs. DMSO Control: TNF-α production; for TNF-α: whole blood diluted 10×, overnight, single cultures; for Suppressive Effect on TNF-α Production: summary of structure-activity relationship, LPS-induced, whole blood
Method: Human whole blood was diluted 10× with RPMI-1640 medium and distributed to 24-well culture plates in 1 mL aliquots. LPS was added to the culture at a concentration of 1 µg/mL. The studied peptides were used at concentrations of 1, 10, and 100 µg/mL. After overnight incubation, the supernatants were harvested and frozen at −20 °C until cytokine determination. TNF-α activity was determined using a bioassay with the highly sensitive cell line WEHI 164.13 [29]. Briefly, cells were seeded at a concentration of 2 × 10^4 cells/well in quadruplicate. Increasing dilutions of the assayed supernatant were mixed with the target cells in the presence of actinomycin D (1 µg/mL). After 20 h of incubation, MTT was added into the wells, and the cultures were incubated for an additional 4 h. Next, a lysing buffer (20% SDS with 50% DMF, pH 4.7) was added and the OD at 550/630 nm in a spectrophotometer was measured after 24 h. The detection limit of the assay was about 2.5 pg/mL. One unit of TNF-α activity was defined as an inverse of supernatant dilution where 50% cell death took place. No statistics were applied here since the data were derived from single cultures (wells).

murine leukemia L1210 = details: 100 μg/mL; unpublished
human PBMCs = experiment: Proliferative response of PBMC to PHA (MTT); assay type: cell-based; details: summary of structure-activity relationship; PHA-induced PBMC proliferation, 1-100 µg/mL
Method: PBMCs were isolated by centrifugation on a Ficoll-uropoline gradient (density 1.077 g/mL) (Lymphoprep, PAA Laboratories, Linz, Austria), at 800× g for 20 min at 4 °C. The interphase cells were then washed three times with Hanks’ medium and re-suspended in the culture medium (RPMI-1640 with 10% addition of FCS, L-glutamine, sodium pyruvate, 2-mercaptoetanol, and the antibiotics streptomycin and penicillin) at a density of 2 × 10^6 cells/mL.
The isolated PBMCs were distributed into 96-well flat-bottom plates in 100 µL aliquots (2 × 10^5 cells/well). PHA was used at a concentration of 5 µg/mL. The compounds were tested at concentrations of 1, 10, and 100 µg/mL. DMSO at appropriate dilutions served as a control solvent. After a 4-day incubation in a cell culture incubator, the proliferative response of the cells was determined by the colorimetric MTT method [28] in a Dynatech 5000 spectrophotometer. Data (OPSYS MR Dynex Technologies, Chantilly, VA, USA) are presented as a mean optical density (OD) at 550 nm, with a reference wavelength of 630 nm, from quadruplicate wells ± standard error (SE). The control cultures contained no PHA or PHA without the studied compounds.
The assay was performed by the MTT colorimetric method [29]. […] After additional overnight incubation, the OD was measured at 550/630 nm (Dynatech 5000 spectrophotometer).

[1] = system: carrageenan-induced inflammation of the air pouch, mouse model; experiment: Carrageenan-induced inflammation of air pouches; assay type: in vivo; details: 100 µg/mouse into air pouch; for Eosinophils in peripheral blood: control mice 9.6%; for Neutrophils in peripheral blood: control mice 37%; for Degranulated mastocytes in air pouches: control untreated air pouches 89.7%
Excerpt: (§1) C57Bl/6 female mice, 8–10 weeks old and weighing 19–22 g, were delivered by the Breeding Centre of Laboratory Animals at the Institute of Occupational Medicine, Łódź, Poland and used for this study. Mice had free access to granulated food and filtered water. The local ethics committee at the Institute of Immunology and Experimental Therapy, Wrocław, Poland, approved this study (permission #37/2012).
(§2) Blood smears were made on microscopic glasses, and the preparations were dried and stained with Giemsa and May–Grünwald dyes. The blood picture was evaluated in a light microscope at 1000× magnification in immersion oil. Up to 100 cells were counted per preparation. The results were shown as a percentage of mean values of respective cell types: mature neutrophils, band forms of neutrophils, eosinophils, lymphocytes, and monocytes.
Air pouches were formed by a subdermal injection into the dorsal area (under halothane anesthesia) of 5 mL of air (23 G × 11/4 needle, 5 mL syringe). On the next day, the air pouches were supplemented by 1 mL of air and injected with 0.5 mL of 1% carrageenan solution in PBS. The peptides were dissolved in DMSO (1 mg/100 µL DMSO) and supplemented with 0.9% NaCl solution to a volume of 0.2 mL. P03 and 4B8M peptides were injected into air pouches at a dose of 100 µg/mouse 30 min after carrageenan administration. BG mice received the respective amount of DMSO in 0.9% NaCl. Control mice were given only carrageenan solution plus the respective amount of DMSO. The next day, the mice were bled to perform blood smears and sacrificed. A total of 1 mL of 0.9% NaCl was injected into air pouches and the content aspirated. From this source, a total number was determined, the rest were centrifuged, and from a cell pellet, the smears were performed on microscopic glasses and stained with Giemsa and May Grunwald reagents. The cell composition of air pouch exudates was analyzed and the results were shown as a percentage (mean values of the respective cell types: neutrophils, band forms of neutrophils, eosinophils, basophils, lymphocytes, macrophages, and mastocytes).
Five to nine mice per group were used in the experiments. Results (where applicable) are presented as mean values ± standard error (SE). The Brown–Forsyth test was used to determine the homogeneity of variance between groups. When the variance was homogenous, analysis of variance (one-way ANOVA) was applied, followed by post hoc comparisons with Tukey’s test to estimate the significance of the differences between groups. Nonparametric data were evaluated with the Kruskal–Wallis analysis of variance (ANOVA of K–W), as indicated in the text. Significance was determined at p < 0.05. Statistical analysis was performed using […] 7.0 for Windows.

[2] = 100 μg/mL; unpublished
[3] = system: contact sensitivity to oxazolone mouse model; experiment: Contact sensitivity to oxazolone; assay type: in vivo; details: 0.1% ointment on auricles
Excerpt: as §1, §2
The test was performed as described by others, with some modifications. Mice were shaved on the abdomen and after 24 h, 100 µL of 0.5% oxazolone in acetone was applied topically. […] The ear edema was measured after 24 h using a spring caliper. […]
Five to nine mice per group were used in the experiments. […] Nonparametric data were evaluated with the Kruskal–Wallis analysis of variance (ANOVA of K–W), as indicated in the text. Significance was determined at p < 0.05. […]

mouse splenocytes = experiment: ConA-induced proliferation of mouse splenocytes (unpublished data); assay type: cell-based; details: other data (unpublished)

| Molecule | % of Inhibition vs. DMSO Control (TNF-α; peptide 1 µg/mL) [%] | TNF-α (TNF-α; peptide 1 µg/mL) [pg/mL] | % of Inhibition vs. DMSO Control (TNF-α; peptide 10 µg/mL) [%] | TNF-α (TNF-α; peptide 10 µg/mL) [pg/mL] | Suppressive Effect on TNF-α Production (TNF-α) | Inhibition of growth of L1210 cells (murine leukemia L1210) [%] | Suppressive Effect on Cell Proliferation (human PBMCs) | Eosinophils in peripheral blood [1] [%] | Neutrophils in peripheral blood [1] [%] | Degranulated mastocytes in air pouches [1] [%] | Inhibition of growth of A431 cells [2] [%] | Percentage of all myeloid cell types in circulating blood [3] | Inhibition of concanavalin A (ConA)-induced proliferation of mouse splenocytes (mouse splenocytes) |
| --- | --- | --- | --- | --- | --- | --- | --- | --- | --- | --- | --- | --- | --- |
| cyclo- [P02, cyclo-[D-Pro-D-Pro-β^3-HoPhe-D-Phe-]] | 19.0 | 6614 | 20.7 | 6346 | small | – | – | – | – | – | – | – | – |
| cyclo-[Pro-Pro-D-β^3-HoPhe-Phe-] (head to tail) [P04] | 33.1 | 5463 | 33.8 | 5302 | strong | – | – | – | – | – | – | – | – |
| O=C1C[C@H](Cc2ccccc2)NC(=O)[C@@H]2CCCN2C(=O)[C@H]2CCCN2C(=O)[C@H](Cc2ccccc2)N1 [P03, cyclo-[D-Pro-Pro-β^3-HoPhe-Phe-]] (cyclo([dP]P[β3hF]F)) | 25.9 | 6052 | 34.8 | 5222 | strong | 34 | significant at 100 µg/mL | 2.0 | 23 | 28.7 | 15 | significantly reduced | – |
| cyclo[Pro-Pro-β^3-HoPhe-D-Phe-] (head to tail) [P01] | 14.1 | 7016 | 28.1 | 5757 | – | – | – | – | – | – | – | – | – |
| cyclo[Pro-Pro-β^3-HoPhe-Phe-] (head to tail) [P00, cyclo-[Pro-Pro-β^3-HoPhe-Phe-], reference compound] | 9.8 | 7364 | 10.4 | 7176 | – | – | – | 3.4 | 31.5 | 39.5 | – | – | moderate inhibition |
| cyclo-[D-Pro-D-Pro-D-β^3-HoPhe-D-Phe-] [P06] | 1.6 | 8033 | 4.4 | 7658 | absent | – | – | – | – | – | – | – | – |
| cyclo-[Pro-D-Pro-β^3-HoPhe-Phe-] (head to tail) [P05] | 12.8 | 7123 | 10.0 | 7203 | – | – | – | – | – | – | – | – | – |
| cyclo-[D-Pro-D-Pro-β^3-HoPhe-Phe-] (head to tail) [P07] | 21.0 | 6453 | 9.0 | 7284 | small | – | – | – | – | – | – | – | – |
